US20230105212A1, “BIPHENYL DERIVATIVE INHIBITOR, PREPARATION METHOD THEREFOR AND USE THEREOF” (SHANGHAI HANSOH BIOMEDICAL CO., LTD., priority 2020, published 2023)

Experiments:
[1] = Pharmacokinetics test in Balb/C mice; type: in vivo; details: male, mouse, po, p.o. 5 mg/kg, plasma; for MRT inf: read-out: Average residence time MRT0−∞; for AUC(0-t): read-out: Curve area AUC0−t; for Cmax: read-out: Drug concentration in plasma Cmax; for half-life: read-out: Half life t1/2 (converted); for Tmax: read-out: Peak time tmax
Experimental: Test Embodiment 6. Pharmacokinetics Test in Balb/C Mice
Taking Balb/C mice as the test animals, the pharmacokinetic behavior in the plasma of mice of the following compound embodiments was studied when orally administered at a dose of 5 mg/kg.
Balb/C Mouse 6/embodiment, male, Shanghai Jisijie Laboratory Animal Co., Ltd., animal production license number (SCXK (Shanghai) 2013-0006 No. 311620400001794).
0.5% HPMC (1% Tween 80), dissolved by sonication, to prepare a clear solution or a homogeneous suspension.
Balb/C mice, male; p.o. after overnight fasting, respectively, at a dose of 5 mg/kg, administered in a volume of 10 mL/kg.
Before and after administration of mice, at 0, 0.5, 1, 2, 4, 6, 8 and 24 hours, 0.1 mL of blood was collected from the orbit, placed in an EDTA-K2 test tube, and centrifuged at 6000 rpm at 4° C. for 6 min to separate the plasma, stored at −80° C.
1) 40 μL of plasma samples were added to 160 μL of acetonitrile for precipitation, mixed and centrifuged at 3500×g for 5 to 20 minutes.
2) 100 μL of the supernatant solution after treatment was taken for LC/MS/MS to analyze the concentration of the compounds to be tested.
2.6 Liquid Phase Analysis • Liquid phase condition: Shimadzu LC-20AD pump • MS conditions: AB Sciex API 4000 Mass Spectrometer • Chromatographic column: phenomenex Gemiu 5 μm C18 50×4.6 mm • Mobile phase: A solution was aqueous 0.1% formic acid solution, B solution was acetonitrile • Flow rate: 0.8 mL/min • Elution time: 0 to 4.0 minutes, the eluent was as follows:
The main parameters of pharmacokinetics were calculated with WinNonlin 8.2, and the results of the mice pharmacokinetic experiments were shown in the following table: […]

human PD-1/PD-L1 binding = target: T1, human PD-1/PD-L1 binding (Homo sapiens, UniProt Q9NZQ7); experiment: Inhibition of human PD-1/PD-L1 binding (TR-FRET/HTRF); details: TR-FRET, PD-L1-His and PD-1-Fc; read-out: PD-1/PD-L1 binding IC50
T1 construct: PD-L1-His protein (19 to 238 amino acids) (Abcam #ab167713); purchased Abcam (PD-L1-His); R&D (PD-1-Fc) ab167713; 1086-PD
How it was run: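 PD-L1-His (aa 19–238, diluted to 10 nM) and PD-1-Fc (aa 25–167, diluted to 20 nM) incubated with compounds (10 μM or 1 μM top, 3-fold, 11 doses) 60 min at room temperature, then anti-6HIS Eu cryptate/anti-human IgG-XL665 added for 3 h RT or overnight 4 °C. HTRF 665/620 nm ratio gave inhibition and IC50.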

MC38-hPDL1 cells = experiment: In vitro cytotoxicity on MC38-hPDL1 cells (CellTiter-Glo); type: cell-based, mouse; details: for MC38-hPDL1 inhibition rate (%): 72 hours; for IC50: Mus musculus, MC38-hPD-L1, 72 hours
Experimental: Test Embodiment 5. In Vitro Cytotoxicity of the Compounds of the Present Disclosure on NFAT-Luc2/PD1 Jurkat Cells and MC38-hPDL1 Cells
Experimental purpose: To test the in vitro cytotoxicity of compounds on NFAT-luc2/PD1 Jurkat cells and MC38-hPDL1 cells.
When the cells were cultured to an appropriate degree of confluency, the cells were collected, and the cells was adjusted in an appropriate cell concentration by complete medium, then the cell suspension was plated in a 96-well plate, 90 μL per well, and put in a 37° C., 5% CO2 incubator overnight; compound solutions of different concentrations were prepared by DMSO and medium, and a vehicle control was set; compound solutions were added to a 96-well plate, 10 μL per well, and put in a 37° C., 5% CO2 incubator and cultured for 72 hours. After that, CellTiter-Glo solution was added, the mixture was shaken and mixed evenly, incubated in the dark for 10 minutes, and a BioTek Synergy H1 microplate reader was used for reading.
Luminescence signal value was used to calculate the inhibition rate, and the concentration and inhibition rate were fitted by nonlinear regression curve using Graphpad Prism software to obtain IC50 values, as shown in the following table: […]

T1 sequence (Q9NZQ7 19-238): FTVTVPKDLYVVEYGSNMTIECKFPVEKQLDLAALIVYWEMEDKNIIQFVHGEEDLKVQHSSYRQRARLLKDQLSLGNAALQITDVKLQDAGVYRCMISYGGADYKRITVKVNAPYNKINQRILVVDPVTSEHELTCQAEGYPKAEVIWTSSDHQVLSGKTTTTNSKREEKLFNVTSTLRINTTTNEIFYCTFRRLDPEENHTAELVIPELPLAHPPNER

Row | Compound | MRT inf [1] [h] | AUC(0-t) [1] [ng·h/mL] | Cmax [1] [ng/mL] | half-life [1] [h] | Tmax [1] [h] | IC50 (human PD-1/PD-L1 binding) [nM] | MC38-hPDL1 inhibition rate (%) (MC38-hPDL1 cells) | IC50 (MC38-hPDL1 cells) [nM]
1 | COc1nc(-c2cccc(-c3cccc(NC(=O)c4nc5c(n4C)CCN(C)C5)c3Cl)c2Cl)cnc1CN1CC2(C1)CN(C(C)=O)C2 [Embodiment 152, N-(3′-(5-((6-Acetyl-2,6-diazaspiro[3.3]heptan-2-yl)methyl)-6-methoxypyrazin-2-yl)-2,2′-dichloro-[1,1′-biphenyl]-3-yl)-1,5-dimethyl-4,5,6,7-tetrahydro-1H-imidazo[4,5-c]pyridine-2-carboxamide] | 10 | 1140 | 93 |  | 8 | 1.3 | 15% | > 10000
2 | COc1nc(-c2cccc(-c3cccc(NC(=O)c4nc5c(n4C)CCN(C)C5)c3Cl)c2Cl)ncc1CN1CC(CNC(C)=O)C1 [Embodiment 225, N-(3′-(5-((3-(Acetylaminomethyl)azetidin-1-yl)methyl)-4-methoxypyrimidin-2-yl)-2,2′-dichloro-[1,1′-biphenyl]-3-yl)-1,5-dimethyl-4,5,6,7-tetrahydro-1H-imidazo[4,5-c]pyridine-2-carboxamide] | 10.6 | 1920 |  | 9.2 | 2 | 4.5 | 1% | > 10000

More lines, main results first:

Row | MRT inf [1] [h] | AUC(0-t) [1] [ng·h/mL] | Cmax [1] [ng/mL] | half-life [1] [h] | Tmax [1] [h] | IC50 (human PD-1/PD-L1 binding) [nM] | Compound | MC38-hPDL1 inhibition rate (%) (MC38-hPDL1 cells) | IC50 (MC38-hPDL1 cells) [nM]
3 | 16 | 356 | 24 | 10.5 | 1 | 2.4 | COc1nc(-c2cccc(-c3cccc(NC(=O)c4nc5c(n4C)CCN(C)C5)c3Cl)c2Cl)ncc1CN1CC(CO)C1 [Embodiment 223, N-(2,2′-Dichloro-3′-(5-((3-(hydroxymethyl)azetidin-1-yl)methyl)-4-methoxypyrimidin-2-yl)-[1,1′-biphenyl]-3-yl)-1,5-dimethyl-4,5,6,7-tetrahydro-1H-imidazo[4,5-c]pyridine-2-carboxamide] | 2% | > 10000
4 | 16.8 | 1190 | 75 | 10.9 | 6 | 4.7 | COc1nc(-c2cccc(-c3cccc(NC(=O)c4nc5c(n4C)CCN(C)C5)c3Cl)c2Cl)ccc1CN1CC(C(=O)N(C)C)C1 [Embodiment 183, N-(2,2′-Dichloro-3′-(5-((3-(dimethylcarbamoyl)azetidin-1-yl)methyl)-6-methoxypyridin-2-yl)-[1,1′-biphenyl]-3-yl)-1,5-dimethyl-4,5,6,7-tetrahydro-1H-imidazo[4,5-c]pyridine-2-carboxamide] | 14% | > 10000
5 |  |  |  |  |  | 3.7 | COc1nc(-c2cccc(-c3cccc(NC(=O)c4nc5c(n4C)CCN(C)C5)c3Cl)c2Cl)cnc1CN1CC(NC(C)=O)C1 [Embodiment 218, N-(3′-(5-((3-Acetylaminoazetidin-1-yl)methyl)-6-methoxypyrazin-2-yl)-2,2′-dichloro-[1,1′-biphenyl]-3-yl)-1,5-dimethyl-4,5,6,7-tetrahydro-1H-imidazo[4,5-c]pyridine-2-carboxamide] | 51% | 9340
6 | 11.3 | 596 | 48 | 9 | 2 | 4.3 | COc1nc(-c2cccc(-c3cccc(NC(=O)c4nc5c(n4C)CCN(C)C5)c3Cl)c2Cl)ccc1CNC1COC1 [Embodiment 114, N-(2,2′-Dichloro-3′-(6-methoxy-5-((oxetan-3-ylamino)methyl)pyridin-2-yl)-[1,1′-biphenyl]-3-yl)-1,5-dimethyl-4,5,6,7-tetrahydro-1H-imidazo[4,5-c]pyridine-2-carboxamide] | 14.0%^ | > 10000
